Laboratory results as given in patent publication KR20170021349A, “다양한 질병의 치료를 위한 jnk 신호 전달 경로의 세포 투과성 펩타이드 억제자의 새로운 용도” (자이겐 인플라메이션 리미티드, priority 2014, dated 2017).
One block for each compound: values may come before it. No end group written: not given here.

Key:
[1] = tested on: JNK; conditions: Dickens et al. 1997; cited from earlier work
[2] = Phase II trial, post-surgery intraocular inflammation, vs dexamethasone eye drops; format: in vivo, human
[3] = tested on: TC-3 cells; assay: IL-1-induced pancreatic beta-cell apoptosis; format: cell-based; conditions: 1 μM single addition
[4] = tested on: Sprague-Dawley albino rats; assay: Light-induced photoreceptor damage (AMD model), ERG and ONL thickness; format: in vivo, rat; conditions: for a-wave recovery (% of baseline) / b-wave recovery (% of baseline): 50 mg/kg i.p. x5
[5] = tested on: primary embryonic cultures, PC12 cells, mice; conditions: at doses inhibiting JNK activation; cited from earlier work
[6] = tested on: TC-3 cells; assay: Cellular import of fluorescein-labelled TAT and TAT-IB1(s) peptides; format: cell-based; conditions: for time to enter cells: 1 μM labelled peptide
[7] = tested on: AP-1 DNA binding complex in HeLa nuclear extracts; assay: Gel retardation assay, AP-1 DNA binding complex after TNF-alpha; format: cell-based; conditions: added 30 min before TNF-alpha 5 ng/ml
[8] = tested on: C57BL/6N mice; conditions: Wang et al. 2004; cited from earlier work
[9] = tested on: Sprague-Dawley rats; assay: STZ diabetic nephropathy model, chronic administration; format: in vivo, rat; conditions: 25 mg/kg po daily
[10] = tested on: gerbil; conditions: Carboni et al. 2004; cited from earlier work

Compound: PGTGCGDTYRPKRPTTLNLFPQVPRSQDT [IB1-long]
fold more efficient than c-Jun or ATF2 in binding JNK [1]: ~100 배

patients with intraocular pressure increased ([2]; eye drops): 14% | SOC eye disorders, patients ([2]; eye drops (16 patients)): 32%
Compound: C[C@@H]1C[C@H]2[C@@H]3CCC4=CC(=O)C=C[C@]4(C)[C@@]3(F)[C@@H](O)C[C@]2(C)[C@@]1(O)C(=O)CO [덱사메타손, reference compound]
AEs leading to interruption of study treatment, events (%) ([2]; eye drops): 3 (5.5%) | mild AEs, number of events (%) ([2]; eye drops): 42 (76.4%) | moderate AEs, number of events (%) ([2]; eye drops): 9 (16.4%) | patients with an AE within 24 h of administration ([2]; eye drops): 30% | severe AEs, number of events (%) ([2]; eye drops): 4 (7.3%) | patients with rescue medication introduced ([2]; eye drops 1 mg/ml 4x/day 21 d): 4.0% | premature withdrawal of study eye drops, patients (%) ([2]; eye drops (N=50)): 3 (6.0%) | patients with an adverse event ([2]; eye drops, 29/50): 58%

Compound: TDQSRPVQPFLNLTTPRKPRYTDPPRRRQRRKKRG (also: D-amino acids (positions not given here)) [D-TAT-IB1]
IL-1-induced apoptosis ([3]; 2 days IL-1, similar extent as L-TAT-IB): 감소시켰다

Compound: CC(C)(C)/[N+]([O-])=C/c1ccccc1 [PBN, 페닐-N-tert-부틸니트론, reference compound]
a-wave recovery (% of baseline) ([4]; day 9): 70.4% | b-wave recovery (% of baseline) ([4]; day 9): 100% | a-wave recovery (% of baseline) ([4]; day 16): 79.6% | b-wave recovery (% of baseline) ([4]; day 16): 103.6% | a-wave recovery (% of baseline) ([4]; day 23): 76.2% | b-wave recovery (% of baseline) ([4]; day 23): 102.4% | ONL thickness loss (% vs non-induced control eyes) ([4]; ip 50 mg/kg): 16% | ONL thickness ([4]; ip 50 mg/kg, day 23, p<0.05 vs vehicle): 34.05 ± 4.00 μm

Compound: CCSCc1ccc2c(c1)c1c3c(c4c5cc(CSCC)ccc5n5c4c1n2[C@H]1C[C@](O)(C(=O)OC)[C@]5(C)O1)CNC3=O [CEP-1347]
neuronal survival [5]: 신경 생존을 촉진한다

Compound: IPSPSVEEPHKHRPTTLRLTTLGAQDS [IB2-long]
fold more efficient than c-Jun or ATF2 in binding JNK [1]: ~100 배

Compound: NH2-GRKKRRQRRRPPRPKRPTTLNLFPQVPRSQD-COOH (H-GRKKRRQRRRPPRPKRPTTLNLFPQVPRSQD-OH) [L-TAT-IB1(s)]
time to enter cells [6]: < 5 분 | long-term protection against IL-1-induced cell death ([3]; 15 days IL-1): 그렇지 않았다 | formation of AP-1 DNA binding complex [7]: 감소시켰다

Compound: Oc1c2ccccc2c2c3c(cccc13)N=N2 [SP600125]
level of c-Jun phosphorylation [8]: c-Jun 인산화의 수준을 감소

Compound: CCCCc1nc(Cl)c(CO)n1Cc1ccc(-c2ccccc2-c2nn[nH]n2)cc1 [로사르탄, 로사르탄 칼륨, reference compound]
body weight vs vehicle-treated STZ rats [9]: 현저하게 낮았다

Compound: NH2-GRKKRRQRRR-COOH (H-GRKKRRQRRR-OH) [L-TAT]
time to enter cells [6]: < 5 분

Compound: N#CC(c1ccnc(NCCc2cccnc2)n1)c1nc2ccccc2s1 (stereo not shown) [AS601245]
protection against delayed loss of hippocampal CA1 neurons [10]: 현저한 보호를 제공한다

Compound: NH2-RRRQRRKKRG-COOH (H-RRRQRRKKRG-OH; also: D-amino acids (positions not given here)) [D-TAT]
stability inside cells [6]: 극도로 안정하다 | time to enter cells [6]: < 5 분
